Results reported in PMC4117758 (2014).

Assays:
[1] = tested on: C-MYC (DNA, G4) TGAGGGTGGGAGGGTGGGAA; assay: UV-vis absorption; settings: 150 mM KCl; 10 mM Tris-HCl pH 7.4, 1 mM Na2EDTA, 400 ml/l PEG 200; DNA up to 10:1 over compound
[2] = tested on: KRAS (DNA, G4) AGGGCGGTGGGAAGAGGGAAGAGGGGGAGG; assay: UV-vis absorption; settings: 150 mM KCl; 10 mM Tris-HCl pH 7.4, 1 mM Na2EDTA, 400 ml/l PEG 200; DNA up to 10:1 over compound
[3] = tested on: M3Q (DNA, G4) GAGGGAGGGAGGGAGAGGGA; assay: UV-vis absorption; settings: 150 mM KCl; 10 mM Tris-HCl pH 7.4, 1 mM Na2EDTA, 400 ml/l PEG 200; DNA up to 10:1 over compound
[4] = tested on: Oxy28 (DNA, G4) GGGGTTTTGGGGTTTTGGGGTTTGGGG; assay: UV-vis absorption; settings: 150 mM KCl; 10 mM Tris-HCl pH 7.4, 1 mM Na2EDTA, 400 ml/l PEG 200; DNA up to 10:1 over compound
[5] = tested on: AT (DNA, duplex) ATATATATATAT; assay: UV-vis absorption; settings: 150 mM KCl; 10 mM Tris-HCl pH 7.4, 1 mM Na2EDTA, 400 ml/l PEG 200; 20 μM DNA
[6] = tested on: GC (DNA, duplex) GCGCGCGCGCGC; assay: UV-vis absorption; settings: 150 mM KCl; 10 mM Tris-HCl pH 7.4, 1 mM Na2EDTA, 400 ml/l PEG 200; 20 μM DNA
[7] = tested on: LD (DNA, duplex) GCGCAATTGCGC; assay: UV-vis absorption; settings: 150 mM KCl; 10 mM Tris-HCl pH 7.4, 1 mM Na2EDTA, 400 ml/l PEG 200; 20 μM DNA
[8] = tested on: ssDNA1 (DNA, single strand) GAGCTCTCGAAAGAGCTCCGATTA; assay: UV-vis absorption; settings: 150 mM KCl; 10 mM Tris-HCl pH 7.4, 1 mM Na2EDTA, 400 ml/l PEG 200; 20 μM DNA
[9] = tested on: ssDNA2 (DNA, single strand) TAGAGCACACCTGTCCGTG; assay: UV-vis absorption; settings: 150 mM KCl; 10 mM Tris-HCl pH 7.4, 1 mM Na2EDTA, 400 ml/l PEG 200; 20 μM DNA
[10] = tested on: Hum21 (DNA, G4) GGGTTAGGGTTAGGGTTAGGG; assay: UV melting at 295 nm; settings: 50 mM KCl; 10 mM Tris-HCl pH 7.4, 1 mM Na2EDTA, no PEG; 5 μM compound, 5 μM DNA; derived from two Tm
[11] = tested on: Hum45 (DNA, G4) GGGTTAGGGTTAGGGTTAGGGTTAGGGTTAGGGTTAGGGTTAGGG; assay: UV melting at 295 nm; settings: 50 mM KCl; 10 mM Tris-HCl pH 7.4, 1 mM Na2EDTA, no PEG; 5 μM compound, 5 μM DNA; derived from two Tm
[12] = tested on: Hum51 (DNA, G4) GGGTTAGGGTTAGGGTTAGGGTTAGGGTTAGGGTTAGGGTTAGGGTTAGGG; assay: UV melting at 295 nm; settings: 50 mM KCl; 10 mM Tris-HCl pH 7.4, 1 mM Na2EDTA, no PEG; 5 μM compound, 5 μM DNA; derived from two Tm
[13] = tested on: Hum57 (DNA, G4) GGGTTAGGGTTAGGGTTAGGGTTAGGGTTAGGGTTAGGGTTAGGGTTAGGGTTAGGG; assay: UV melting at 295 nm; settings: 50 mM KCl; 10 mM Tris-HCl pH 7.4, 1 mM Na2EDTA, no PEG; 5 μM compound, 5 μM DNA; derived from two Tm
[14] = tested on: Hum63 (DNA, G4) GGGTTAGGGTTAGGGTTAGGGTTAGGGTTAGGGTTAGGGTTAGGGTTAGGGTTAGGGTTAGGG; assay: UV melting at 295 nm; settings: 50 mM KCl; 10 mM Tris-HCl pH 7.4, 1 mM Na2EDTA, no PEG; 5 μM compound, 5 μM DNA; derived from two Tm
[15] = tested on: Hum69 (DNA, G4) GGGTTAGGGTTAGGGTTAGGGTTAGGGTTAGGGTTAGGGTTAGGGTTAGGGTTAGGGTTAGGGTTAGGG; assay: UV melting at 295 nm; settings: 50 mM KCl; 10 mM Tris-HCl pH 7.4, 1 mM Na2EDTA, no PEG; 5 μM compound, 5 μM DNA; derived from two Tm
[16] = tested on: Hum21 (DNA, G4) GGGTTAGGGTTAGGGTTAGGG; assay: UV-vis absorption titration, Scatchard; settings: 150 mM KCl; 10 mM Tris-HCl pH 7.4, 1 mM Na2EDTA, 400 ml/l PEG 200; 3 μM compound; Ka undetected
[17] = tested on: Hum45 (DNA, G4) GGGTTAGGGTTAGGGTTAGGGTTAGGGTTAGGGTTAGGGTTAGGG; assay: UV-vis absorption titration, Scatchard; settings: 150 mM KCl; 10 mM Tris-HCl pH 7.4, 1 mM Na2EDTA, 400 ml/l PEG 200; 3 μM compound; n = 0.46
[18] = tested on: Hum51 (DNA, G4) GGGTTAGGGTTAGGGTTAGGGTTAGGGTTAGGGTTAGGGTTAGGGTTAGGG; assay: UV-vis absorption titration, Scatchard; settings: 150 mM KCl; 10 mM Tris-HCl pH 7.4, 1 mM Na2EDTA, 400 ml/l PEG 200; 3 μM compound; n = 0.50
[19] = tested on: Hum51-M1 (DNA, G4) GGGTTAGGGTTAGGGTTAGGGTTAGGGTTAGGGTTAGGGTTAGGGTGTGAG; assay: UV-vis absorption titration, Scatchard; settings: 150 mM KCl; 10 mM Tris-HCl pH 7.4, 1 mM Na2EDTA, 400 ml/l PEG 200; 3 μM compound; n = 0.45
[20] = tested on: Hum51-M2 (DNA, G4) GGGTTAGGGTTAGGGTTAGGGTTGAGTGTAGGGTTAGGGTTAGGGTTAGGG; assay: UV-vis absorption titration, Scatchard; settings: 150 mM KCl; 10 mM Tris-HCl pH 7.4, 1 mM Na2EDTA, 400 ml/l PEG 200; 3 μM compound; n = 0.46
[21] = tested on: Hum57 (DNA, G4) GGGTTAGGGTTAGGGTTAGGGTTAGGGTTAGGGTTAGGGTTAGGGTTAGGGTTAGGG; assay: UV-vis absorption titration, Scatchard; settings: 150 mM KCl; 10 mM Tris-HCl pH 7.4, 1 mM Na2EDTA, 400 ml/l PEG 200; 3 μM compound; n = 0.48
[22] = tested on: Hum57-M1 (DNA, G4) GGGTTAGGGTTAGGGTTAGGGTTAGGGTTAGGGTTAGGGTTAGGGTGTGAGTGTGAG; assay: UV-vis absorption titration, Scatchard; settings: 150 mM KCl; 10 mM Tris-HCl pH 7.4, 1 mM Na2EDTA, 400 ml/l PEG 200; 3 μM compound; n = 0.48
[23] = tested on: Hum57-M2 (DNA, G4) GGGTTAGGGTTAGGGTTAGGGTTGAGTGTAGGGTTAGGGTTAGGGTTAGGGTGTGAG; assay: UV-vis absorption titration, Scatchard; settings: 150 mM KCl; 10 mM Tris-HCl pH 7.4, 1 mM Na2EDTA, 400 ml/l PEG 200; 3 μM compound; n = 0.47
[24] = tested on: Hum57-M3 (DNA, G4) GGGTTAGGGTTAGGGTTAGGGTTGAGTGTGAGTGTAGGGTTAGGGTTAGGGTTAGGG; assay: UV-vis absorption titration, Scatchard; settings: 150 mM KCl; 10 mM Tris-HCl pH 7.4, 1 mM Na2EDTA, 400 ml/l PEG 200; 3 μM compound; n = 0.50
[25] = tested on: Hum63 (DNA, G4) GGGTTAGGGTTAGGGTTAGGGTTAGGGTTAGGGTTAGGGTTAGGGTTAGGGTTAGGGTTAGGG; assay: UV-vis absorption titration, Scatchard; settings: 150 mM KCl; 10 mM Tris-HCl pH 7.4, 1 mM Na2EDTA, 400 ml/l PEG 200; 3 μM compound; n = 0.52
[26] = tested on: Hum63-M1 (DNA, G4) GGGTTAGGGTTAGGGTTAGGGTTAGGGTTAGGGTTAGGGTTAGGGTGTGAGTGTGAGTGTGAG; assay: UV-vis absorption titration, Scatchard; settings: 150 mM KCl; 10 mM Tris-HCl pH 7.4, 1 mM Na2EDTA, 400 ml/l PEG 200; 3 μM compound; n = 0.46
[27] = tested on: Hum63-M2 (DNA, G4) GGGTTAGGGTTAGGGTTAGGGTTGAGTGTAGGGTTAGGGTTAGGGTTAGGGTGTGAGTGTGAG; assay: UV-vis absorption titration, Scatchard; settings: 150 mM KCl; 10 mM Tris-HCl pH 7.4, 1 mM Na2EDTA, 400 ml/l PEG 200; 3 μM compound; n = 0.50
[28] = tested on: Hum63-M3 (DNA, G4) GGGTTAGGGTTAGGGTTAGGGTTGAGTGTGAGTGTAGGGTTAGGGTTAGGGTTAGGGTGTGAG; assay: UV-vis absorption titration, Scatchard; settings: 150 mM KCl; 10 mM Tris-HCl pH 7.4, 1 mM Na2EDTA, 400 ml/l PEG 200; 3 μM compound; n = 0.50
[29] = tested on: Hum69 (DNA, G4) GGGTTAGGGTTAGGGTTAGGGTTAGGGTTAGGGTTAGGGTTAGGGTTAGGGTTAGGGTTAGGGTTAGGG; assay: UV-vis absorption titration, Scatchard; settings: 150 mM KCl; 10 mM Tris-HCl pH 7.4, 1 mM Na2EDTA, 400 ml/l PEG 200; 3 μM compound; n = 0.52

C[N+]1(CCOc2cccc(-c3c4nc(c(-c5cccc(OCC[N+]6(C)CCCCC6)c5)c5ccc([nH]5)c(-c5cccc(OCC[N+]6(C)CCCCC6)c5)c5nc(c(-c6cccc(OCC[N+]7(C)CCCCC7)c6)c6ccc3[nH]6)C=C5)C=C4)c2)CCCCC1
binding [1]: no
binding [2]: no
binding [3]: no
binding [4]: no
binding [5]: no
binding [6]: no
binding [7]: no
binding [8]: no
binding [9]: no
melting temperature shift (ΔTm) [10]: 0.4 °C
melting temperature shift (ΔTm) [11]: 9.1 °C
melting temperature shift (ΔT1/2) [12]: 8.0 °C
melting temperature shift (ΔTm) [13]: 9.2 °C
melting temperature shift (ΔTm) [14]: 8.9 °C
melting temperature shift (ΔTm) [15]: 6.6 °C
binding [16]: no
Ka [17]: 1.11e+06 M⁻¹
Ka [18]: 1.66e+06 M⁻¹
Ka [19]: 1.09e+06 M⁻¹
Ka [20]: 1.1e+06 M⁻¹
Ka [21]: 1.05e+06 M⁻¹
Ka [22]: 1.3e+06 M⁻¹
Ka [23]: 1.38e+06 M⁻¹
Ka [24]: 1.08e+06 M⁻¹
Ka [25]: 2.53e+06 M⁻¹
Ka [26]: 2.08e+06 M⁻¹
Ka [27]: 1.1e+06 M⁻¹
Ka [28]: 1.08e+06 M⁻¹
Ka [29]: 2.05e+06 M⁻¹
